Consider eight compounds from US20150202167A1, “Trans-Clomiphene Formulations and Uses Thereof” (REPROS THERAPEUTICS INC., priority 2012, published 2015).

The conditions of series [1]: noted by Ernst et al.; cited from earlier work.
The conditions of series [2]: cited from earlier work.
The nature of series [3]: Particle size analysis by laser diffraction (Malvern Mastersizer 2000). The class given is physicochemical. The settings on record: for d10: 10% of the total volume of particles is less than the indicated size; for d10 / d50 / d90: final method conditions, 0.1% (w/v) Span 85 in hexane; for d50: 50% of the total volume of particles is less than the indicated size; for d90: 90% of the total volume of particles is less than the indicated size. The source says:
Trans-clomiphene is characterized for size using an instrument adapted to measure equivalent spherical volume diameter, such as a Malvern Mastersizer 2000 laser diffraction particle size analyzer or equivalent instrument. After being characterized for size, the trans-clomiphene is then milled, if necessary, preferably using a pin mill under suitable conditions of mill rotation rate and feed rate, to bring the particle size value within the above mentioned limits according to the invention. The efficiency of milling is checked by sampling using a Malvern Mastersizer 2000 laser diffraction particle size analyzer and the final particle size is checked in a similar manner.
The values found from characterizing a large number of “unknown” particles can be plotted frequency vs. diameter. This gives a characteristic curve representing size distribution of the sample, i.e., cumulative percentage under size distribution curve. Values from this can be read off directly or plotted on log-probability paper to give an appropriate straight line. The mean equivalent spherical volume diameter is the 50% undersize value. The mean equivalent spherical volume diameter found is thus a statistical representation of a theoretical particle having the same property as the “unknown” particle. The following is a description by way of example.
Repeated particle size measurements of the sample dispersed in 0.1% (w/v) Span™ 85 in hexane were collected while recirculating over the course of approximately five minutes with a pump speed of 1000 rpm. Particle size (d10, d50, d90) was plotted versus the recirculation time. Values for both the d10 and d50 fell within a narrow range for the duration. The decrease in the d90 primarily occurred over the first 90 seconds with a gradual decrease thereafter.
Repeated particle size measurements of the sample were collected while recirculating for 90 seconds with increasing pump speeds to examine the effect of pump speed on particle size. […] A pump speed of 1500 rpm was selected to optimize both dispersion of agglomerates and suspension of the larger particles and to minimize attrition of the blades and needles.
One particle size measurement of each sample of trans-clomiphene citrate was collected using the final method conditions. Three of the lots shared a similar bimodal particle size distribution whereas one lot contained a third mode consisting of much larger particles. The remaining lot of was bimodal but reflected much larger particle sizes than the distributions of the earlier three lots with bimodal distributions.
Particle size data was acquired using a Malvern Instruments MS2000 equipped with a Hydro 2000 μP dispersion unit. Data was collected and analyzed using Mastersizer 2000 v. 5.60 software using volume based measurements. NIST-traceable glass beads were used as the reference standard.
Particle size of trans-clomiphene citrate using the final method conditions is reproduced below: […]

Series [4] can be described thus: Evaluation of dispersants for trans-clomiphene citrate. The class given is physicochemical. The settings on record: 0.01% (w/v) Tween 20 (polysorbate 20) in water. Here is the method: 0.1% (w/v) Lecithin in Isopar G™, 0.1% (w/v) Span™ 85 (sorbitane trioleate) in hexane, and 0.01% (w/v) Tween® 20 (polysorbate 20) in water were evaluated as dispersants for trans-clomiphene citrate. Samples suspended easily in each of the two organic dispersants and settled out of suspension slowly. […] Samples dispersed in the Isopar G™-based and hexane-based dispersants were examined microscopically. […] 0.1% (w/v) Span™ 85 in hexane was selected for further analysis.

Consider `CCN(CC)CCOc1ccc(/C(=C(/Cl)c2ccccc2)c2ccccc2)cc1` (single isomer, unassigned) [trans-isomer, trans-2-(p-(2-chloro-1,2-diphenylvinyl)phenoxy)triethylamine], for which the “estrogenic / antiestrogenic character” value in series [1] is reported as “antiestrogenic”.
For the compound `CCN(CC)CCOc1ccc(C(=C(Cl)c2ccccc2)c2ccccc2)cc1` [clomiphene], the “FSH, LH” value in series [2] (both young and old men after treatment with clomiphene) is “increases”. The “free and total testosterone” value in series [2] (men, young men showing significant increases) is given as “increases”.
As for `CCN(CC)CCOc1ccc(/C(=C(/Cl)c2ccccc2)c2ccccc2)cc1.O=C(O)CC(O)(CC(=O)O)C(=O)O` [compound 16204], in series [3], the d10 stood at 8.058 μm, the d50 is given as 106.743 μm and the d90 came to 318.464 μm.
`CCN(CC)CCOc1ccc(/C(=C(/Cl)c2ccccc2)c2ccccc2)cc1.O=C(O)CC(O)(CC(=O)O)C(=O)O` [compound 24712]: in series [3], the d10 is 4.038 μm, the d50 came to 13.902 μm and the d90 amounted to 218.573 μm.
Taken in the same sequence, the figures for `CCN(CC)CCOc1ccc(/C(=C(/Cl)c2ccccc2)c2ccccc2)cc1.O=C(O)CC(O)(CC(=O)O)C(=O)O` [compound 24867] were 4.794 μm, 13.418 μm and 70.289 μm.
Taken in the same sequence, the figures for `CCN(CC)CCOc1ccc(/C(=C(/Cl)c2ccccc2)c2ccccc2)cc1.O=C(O)CC(O)(CC(=O)O)C(=O)O` [compound 31249] were 4.850 μm, 13.455 μm and 76.891 μm.
As to `CCN(CC)CCOc1ccc(/C(=C(/Cl)c2ccccc2)c2ccccc2)cc1.O=C(O)CC(O)(CC(=O)O)C(=O)O` [compound 32305], the d10 in series [3] worked out at 3.373 μm. The d50 in series [3] came to 9.664 μm. In series [3], this compound came in with a d90 of 44.995 μm. The Vol under % in series [3] (size 0.010 μm), in series [3] (size 0.011 μm), in series [3] (size 0.013 μm), in series [3] (size 0.015 μm), in series [3] (size 0.017 μm) and in series [3] (size 0.020 μm) was 0.00% throughout. Moreover, the Vol under % in series [3] (size 0.023 μm), in series [3] (size 0.026 μm), in series [3] (size 0.030 μm), in series [3] (size 0.035 μm), in series [3] (size 0.040 μm) and in series [3] (size 0.046 μm) was 0.00% each time. For the same compound, the Vol under % in series [3] (size 0.052 μm), in series [3] (size 0.060 μm), in series [3] (size 0.069 μm), in series [3] (size 0.079 μm), in series [3] (size 0.091 μm) and in series [3] (size 0.105 μm) was 0.00% in each case. For the same compound, the Vol under % in series [3] (size 0.120 μm), in series [3] (size 0.138 μm), in series [3] (size 0.158 μm), in series [3] (size 0.182 μm), in series [3] (size 0.209 μm) and in series [3] (size 0.240 μm) was 0.00% each time. Moreover, the Vol under % in series [3] (size 0.275 μm), in series [3] (size 0.316 μm), in series [3] (size 0.363 μm), in series [3] (size 0.417 μm), in series [3] (size 0.479 μm) and in series [3] (size 0.550 μm) was 0.00% in each case. The Vol under % worked out at 0.00% in series [3] (size 0.631 μm); 0.00% in series [3] (size 0.724 μm); 0.00% in series [3] (size 0.832 μm); 0.02% in series [3] (size 0.965 μm); 0.10% in series [3] (size 1.096 μm); 0.28% in series [3] (size 1.259 μm). Moreover, the Vol under % is on record as 0.60% in series [3] (size 1.445 μm); 1.12% in series [3] (size 1.660 μm); 1.93% in series [3] (size 1.905 μm); 3.10% in series [3] (size 2.188 μm); 4.72% in series [3] (size 2.512 μm); 6.86% in series [3] (size 2.884 μm). Moreover, the Vol under % is 9.59% in series [3] (size 3.311 μm); 12.94% in series [3] (size 3.802 μm); 16.94% in series [3] (size 4.385 μm); 21.58% in series [3] (size 5.012 μm); 26.82% in series [3] (size 5.754 μm); 32.58% in series [3] (size 6.607 μm). Also, the Vol under % in series [3] (size 7.586 μm) stood at 38.74%; in series [3] (size 8.710 μm) it was 45.14%; in series [3] (size 10.00 μm), 51.59%; in series [3] (size 11.482 μm), 57.87%; in series [3] (size 13.183 μm), 63.80%; in series [3] (size 15.136 μm), 69.20%. Also, the Vol under % in series [3] (size 17.378 μm) is recorded as 73.95%; in series [3] (size 19.953 μm), 77.98%; in series [3] (size 22.909 μm), 81.29%; in series [3] (size 26.303 μm), 83.92%; in series [3] (size 30.200 μm), 85.99%; in series [3] (size 34.674 μm), 87.62%. Also, the Vol under % was 88.95% in series [3] (size 39.811 μm); 90.13% in series [3] (size 45.709 μm); 91.28% in series [3] (size 52.481 μm); 92.50% in series [3] (size 60.256 μm); 93.84% in series [3] (size 69.183 μm); 95.28% in series [3] (size 79.433 μm). Moreover, the Vol under % was determined as 96.72% in series [3] (size 91.201 μm); 98.02% in series [3] (size 104.713 μm); 99.04% in series [3] (size 120.226 μm); 99.72% in series [3] (size 138.038 μm); 99.97% in series [3] (size 158.489 μm); 100.00% in series [3] (size 181.970 μm). In addition, the Vol under % in series [3] (size 208.930 μm), in series [3] (size 239.883 μm), in series [3] (size 275.423 μm), in series [3] (size 316.228 μm), in series [3] (size 363.078 μm) and in series [3] (size 416.869 μm) was 100.00% throughout. Also, the Vol under % in series [3] (size 478.630 μm), in series [3] (size 549.541 μm), in series [3] (size 630.957 μm), in series [3] (size 724.438 μm), in series [3] (size 831.764 μm) and in series [3] (size 954.993 μm) was 100.00% in each case. In series [3] (size 1096.478 μm), this compound displayed a Vol under % of 100.00%.
As for trans-clomiphene citrate, in series [4], the “Dissolution of the sample suspended in aqueous dispersant” value is “Partial dissolution”.
